US6737383B1, “Herbicidal oxadiazolidines” (priority 1999, dated 2004)

Columns and labels:
bedstraw = assay: Test B pre/postemergence bedstraw; format: in vivo, Galium aparine
Summary of the method: (§1)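 Response is a visual 0-to-10 score relative to untreated plants, where 0 means no effect and 10 means complete control, taken twelve to sixteen days after application. Treatments went onto soil at planting and onto foliage of 1- to 4-leaf plants, using a surfactant-containing non-phytotoxic solvent.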

blackgrass = assay: Test B pre/postemergence blackgrass; format: in vivo, Alopecurus myosuroides
Summary of the method: as §1

surinam grass = assay: Test B pre/postemergence surinam grass; format: in vivo, Brachiaria decumbens
Summary of the method: as §1

cocklebur = assay: Test B pre/postemergence cocklebur; format: in vivo, Xanthium strumarium
Summary of the method: as §1

corn = assay: Test B pre/postemergence corn; format: in vivo, Zea mays
Summary of the method: as §1

crabgrass = assay: Test B pre/postemergence crabgrass; format: in vivo, Digitaria sanguinalis
Summary of the method: as §1

rape = assay: Test B pre/postemergence rape; format: in vivo, Brassica napus
Summary of the method: as §1

soybean = assay: Test B pre/postemergence soybean; format: in vivo, Glycine max
Summary of the method: as §1

sugar beet = assay: Test B pre/postemergence sugar beet; format: in vivo, Beta vulgaris
Summary of the method: as §1

velvetleaf = assay: Test B pre/postemergence velvetleaf; format: in vivo, Abutilon theophrasti
Summary of the method: as §1

wheat = assay: Test B pre/postemergence wheat; format: in vivo, Triticum aestivum
Summary of the method: as §1

wild oat = assay: Test B pre/postemergence wild oat; format: in vivo, Avena fatua
Summary of the method: as §1

purple nutsedge = assay: Test B pre/postemergence purple nutsedge; format: in vivo, Cyperus rotundus; settings: Postemergence
Summary of the method: as §1

rice = assay: Test B flood test rice; format: in vivo, Oryza sativa
Summary of the method: (§2)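 Flood test on plants grown to the 2-leaf stage; treated plants kept in greenhouse twelve to sixteen days, then visually rated against controls on a 0 (no effect) to 10 (complete control) scale.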

smallflower flatsedge = assay: Test B flood test smallflower flatsedge; format: in vivo, Cyperus difformis
Summary of the method: as §2

duck salad = assay: Test B flood test duck salad; format: in vivo, Heteranthera limosa
Summary of the method: as §2

bamyardgrass = assay: Test B flood test barnyardgrass; format: in vivo, Echinochloa crus-galli
Summary of the method: as §2

[1] = Postemergence, Rate 250 g/ha, scale 0 to 10, 0 no effect, 10 complete control
[2] = Postemergence, Rate 1000 g/ha, scale 0 to 10 (0 no effect, 10 complete control)
[3] = Preemergence, Rate 125 g/ha, scale 0 to 10 (0 no effect, 10 complete control)
[4] = Preemergence, Rate 250 g/ha, scale of 0 to 10 where 0 is no effect and 10 is complete control
[5] = Preemergence, Rate 500 g/ha, scale 0 (no effect) to 10 (complete control)
[6] = Rate 125 g/ha, Postemergence, scale 0 to 10, 0 no effect, 10 complete control
[7] = Rate 500 g/ha, Postemergence, 0 to 10 scale (0 no effect, 10 complete control)
[8] = Rate 1000 g/ha, Preemergence, scale 0 to 10 (0 no effect, 10 complete control)
[9] = Rate 125 g/ha, Postemergence section (flood test species), scale 0 to 10, 0 no effect, 10 complete control
[10] = Rate 500 g/ha, Postemergence section of Table B, 0 to 10 scale (0 no effect, 10 complete control)
[11] = flood test, listed under Postemergence, Rate 250 g/ha, scale 0 to 10, 0 no effect, 10 complete control

Structure (SMILES): CCN(CC)C(=O)n1oc(=O)n(-c2ccc(OC)cc2)c1=O [Compound 1]
- Bedstraw plant response rating (bedstraw; [1]): 0
- Bedstraw plant response rating (bedstraw; [2]): 0
- Plant response rating, Bedstraw (bedstraw; [3]): 0
- Plant response rating, Bedstraw (bedstraw; [4]): 0
- Bedstraw plant response rating (bedstraw; [5]): 0
- Bedstraw plant response rating (bedstraw; [6]): 0
- Bedstraw plant response rating (bedstraw; [7]): 0
- Plant response rating, Bedstraw (bedstraw; [8]): 0
- Blackgrass plant response rating (blackgrass; [1]): 0
- Blackgrass plant response rating (blackgrass; [2]): 8
- Plant response rating, Blackgrass (blackgrass; [3]): 0
- Plant response rating, Blackgrass (blackgrass; [4]): 0
- Blackgrass plant response rating (blackgrass; [5]): 2
- Blackgrass plant response rating (blackgrass; [6]): 0
- Blackgrass plant response rating (blackgrass; [7]): 2
- Plant response rating, Blackgrass (blackgrass; [8]): 4
- B. signalgrass plant response rating (surinam grass; [1]): 7
- B. signalgrass plant response rating (surinam grass; [2]): 6
- Plant response rating, B. signalgrass (surinam grass; [3]): 0
- Plant response rating, B. signalgrass (surinam grass; [4]): 0
- B. signalgrass plant response rating (surinam grass; [5]): 6
- B. signalgrass plant response rating (surinam grass; [6]): 0
- B. signalgrass plant response rating (surinam grass; [7]): 7
- Plant response rating, B. signalgrass (surinam grass; [8]): 8
- Cocklebur plant response rating (cocklebur; [1]): 0
- Cocklebur plant response rating (cocklebur; [2]): 0
- Plant response rating, Cocklebur (cocklebur; [3]): 0
- Plant response rating, Cocklebur (cocklebur; [4]): 0
- Cocklebur plant response rating (cocklebur; [5]): 0
- Cocklebur plant response rating (cocklebur; [6]): 0
- Cocklebur plant response rating (cocklebur; [7]): 0
- Corn plant response rating (corn; [1]): 0
- Corn plant response rating (corn; [2]): 0
- Plant response rating, Corn (corn; [3]): 0
- Plant response rating, Corn (corn; [4]): 0
- Corn plant response rating (corn; [5]): 5
- Corn plant response rating (corn; [6]): 0
- Corn plant response rating (corn; [7]): 0
- Plant response rating, Corn (corn; [8]): 7
- Crabgrass plant response rating (crabgrass; [1]): 5
- Crabgrass plant response rating (crabgrass; [2]): 9
- Plant response rating, Crabgrass (crabgrass; [3]): 4
- Plant response rating, Crabgrass (crabgrass; [4]): 8
- Crabgrass plant response rating (crabgrass; [5]): 8
- Crabgrass plant response rating (crabgrass; [6]): 0
- Crabgrass plant response rating (crabgrass; [7]): 8
- Plant response rating, Crabgrass (crabgrass; [8]): 9
- Rape plant response rating (rape; [1]): 0
- Rape plant response rating (rape; [2]): 4
- Plant response rating, Rape (rape; [3]): 0
- Plant response rating, Rape (rape; [4]): 0
- Rape plant response rating (rape; [5]): 0
- Rape plant response rating (rape; [6]): 0
- Rape plant response rating (rape; [7]): 2
- Plant response rating, Rape (rape; [8]): 0
- Soybean plant response rating (soybean; [1]): 0
- Soybean plant response rating (soybean; [2]): 2
- Plant response rating, Soybean (soybean; [3]): 0
- Plant response rating, Soybean (soybean; [4]): 0
- Soybean plant response rating (soybean; [5]): 0
- Soybean plant response rating (soybean; [6]): 0
- Plant response rating, Soybean (soybean; [8]): 0
- Sugarbeets plant response rating (sugar beet; [1]): 0
- Sugarbeets plant response rating (sugar beet; [2]): 5
- Plant response rating, Sugarbeets (sugar beet; [3]): 0
- Plant response rating, Sugarbeets (sugar beet; [4]): 0
- Sugarbeets plant response rating (sugar beet; [5]): 0
- Sugarbeets plant response rating (sugar beet; [6]): 0
- Plant response rating, Sugarbeets (sugar beet; [8]): 0
- Velvetleaf plant response rating (velvetleaf; [1]): 0
- Velvetleaf plant response rating (velvetleaf; [2]): 0
- Plant response rating, Velvetleaf (velvetleaf; [3]): 0
- Plant response rating, Velvetleaf (velvetleaf; [4]): 0
- Velvetleaf plant response rating (velvetleaf; [5]): 0
- Velvetleaf plant response rating (velvetleaf; [6]): 0
- Plant response rating, Velvetleaf (velvetleaf; [8]): 3
- Wheat plant response rating (wheat; [1]): 0
- Wheat plant response rating (wheat; [2]): 0
- Plant response rating, Wheat (wheat; [3]): 0
- Plant response rating, Wheat (wheat; [4]): 0
- Wheat plant response rating (wheat; [5]): 0
- Wheat plant response rating (wheat; [6]): 0
- Plant response rating, Wheat (wheat; [8]): 0
- Wild oats plant response rating (wild oat; [1]): 0
- Wild oats plant response rating (wild oat; [2]): 0
- Plant response rating, Wild oats (wild oat; [3]): 0
- Plant response rating, Wild oats (wild oat; [4]): 0
- Wild oats plant response rating (wild oat; [5]): 0
- Wild oats plant response rating (wild oat; [6]): 0
- Plant response rating, Wild oats (wild oat; [8]): 2
- Nutsedge plant response rating (purple nutsedge; Rate 250 g/ha, scale 0 to 10, 0 no effect, 10 complete control): 0
- Nutsedge plant response rating (purple nutsedge; Rate 1000 g/ha, scale 0 to 10 (0 no effect, 10 complete control)): 0
- Nutsedge plant response rating (purple nutsedge; Rate 125 g/ha, scale 0 to 10, 0 no effect, 10 complete control): 0
- Nutsedge plant response rating (purple nutsedge; Rate 500 g/ha, 0 to 10 scale (0 no effect, 10 complete control)): 0
- Rice plant response rating (rice; [2]): 0
- Rice plant response rating (rice; [9]): 0
- Rice plant response rating (rice; [10]): 0
- Rice plant response rating (rice; [11]): 0
- S. Flatsedge plant response rating (smallflower flatsedge; [2]): 0
- S. Flatsedge plant response rating (smallflower flatsedge; [9]): 0
- S. Flatsedge plant response rating (smallflower flatsedge; [11]): 0
- Ducksalad plant response rating (duck salad; [2]): 0
- Ducksalad plant response rating (duck salad; [9]): 0
- Ducksalad plant response rating (duck salad; [10]): 0
- Ducksalad plant response rating (duck salad; [11]): 0
- Barnyardgrass plant response rating (bamyardgrass; [2]): 0
- Barnyardgrass plant response rating (bamyardgrass; [9]): 0
- Barnyardgrass plant response rating (bamyardgrass; [10]): 0
- Barnyardgrass plant response rating (bamyardgrass; [11]): 0
